# Molecular target: T1, Neprilysin (Rattus norvegicus, UniProt P07861)
# T1 sequence (P07861 whole entry): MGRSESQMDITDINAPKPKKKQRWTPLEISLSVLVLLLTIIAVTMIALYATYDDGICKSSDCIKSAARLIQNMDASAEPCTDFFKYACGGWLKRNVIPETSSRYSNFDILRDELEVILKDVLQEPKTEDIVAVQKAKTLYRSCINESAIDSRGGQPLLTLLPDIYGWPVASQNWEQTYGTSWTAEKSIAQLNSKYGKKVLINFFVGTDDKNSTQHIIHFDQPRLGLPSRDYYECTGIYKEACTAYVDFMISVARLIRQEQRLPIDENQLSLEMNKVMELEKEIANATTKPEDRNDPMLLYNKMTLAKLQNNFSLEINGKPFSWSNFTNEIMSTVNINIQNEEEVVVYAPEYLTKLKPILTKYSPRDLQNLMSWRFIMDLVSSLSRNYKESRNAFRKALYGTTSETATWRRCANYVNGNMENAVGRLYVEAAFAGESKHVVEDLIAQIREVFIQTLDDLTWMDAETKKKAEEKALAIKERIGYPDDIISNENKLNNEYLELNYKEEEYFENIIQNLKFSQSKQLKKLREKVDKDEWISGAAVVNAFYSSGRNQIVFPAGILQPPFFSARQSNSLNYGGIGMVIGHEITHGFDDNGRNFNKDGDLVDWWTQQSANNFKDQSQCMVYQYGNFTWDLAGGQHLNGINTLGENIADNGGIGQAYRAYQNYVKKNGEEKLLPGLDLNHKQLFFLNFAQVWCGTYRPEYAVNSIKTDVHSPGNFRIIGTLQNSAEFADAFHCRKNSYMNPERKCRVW
# Assay: The compound was tested for its inhibitory activity against neutral endopeptidase ([…]) in rat kidney
row,Structure (SMILES),IC50
1,COCCOC[C@H](CC1(C(=O)N[C@H]2CC[C@@H](C(=O)O)CC2)CCCC1)C(=O)O [CANDOXATRILAT],0.038 µM
2,O=C(O)[C@H]1CCC[C@@H](NC(=O)C2(CS)CCCCC2)C1,0.31 µM
3,O=C(O)[C@H](Cc1ccccc1)NC(=O)C1(CS)CCCC1,0.22 µM
4,O=C(O)[C@H]1CCC[C@@H](NC(=O)C2(CS)CCCC2)C1,0.215 µM
5,O=C(N[C@@H]1CCC[C@H](C(=O)O)C1)C(CS)Cc1ccccc1 (stereo not given in full),0.18 µM
